Test results reported in ChEMBL document CHEMBL1139153, “Comparison of the in vitro apparent permeability and stability of opioid mimetic compounds with that of the native peptide” (Bioorg Med Chem Lett, 2007).

test: Apparent permeability from apical to basolateral side of human Caco-2 cell membrane; type: ADME, cell-based

Structure (SMILES)	Papp A→B
Cc1cc(O)cc(C)c1CC(N)C(=O)NCCCCc1nc(O)c(CCCCNC(=O)C(N)Cc2c(C)cc(O)cc2C)nc1C (centres undefined)	8.45 nm/s
Cc1cc(O)cc(C)c1CC(N)C(=O)NCCCc1nc(O)c(CCCNC(=O)C(N)Cc2c(C)cc(O)cc2C)nc1C (centres undefined)	5.47 nm/s
Cc1cc(O)cc(C)c1CC(N)C(=O)NCCCCNC(=O)C(N)Cc1c(C)cc(O)cc1C (centres undefined)	1.39 nm/s
NC(=O)[C@H](Cc1ccccc1)NC(=O)[C@H](Cc1ccccc1)NC(=O)[C@@H]1CCCN1C(=O)[C@@H](N)Cc1ccc(O)cc1 [ENDOMORPHIN 2]	0.643 nm/s
